Data: patent US20230014181A1, “CULTURE SYSTEM AND METHODS FOR IMPROVED MODELING OF NEUROLOGICAL CONDITIONS” (Genentech, Inc., priority 2021, published 2023)
Read-outs that look alike come from different tables or passages of the source.

Tests used:
[1] = system: human iPSC neurons and astrocytes treated with 5 μM sAβ42s; assay: Focused small molecule screen, double culture (neuron, astrocyte), rescue from sAβ42s toxicity, high content imaging; format: cell-based; settings: double culture, 5 μM sAβ42s; for percent rescue from sAβ42s toxicity at 6.25 µM / percent rescue from sAβ42s toxicity at 25 µM / percent rescue from sAβ42s toxicity at 50 µM: Homo sapiens, iPSC
Method: (§1) FIGS. 11A-11D show synapse % rescue versus MAP2% rescue (FIGS. 11A-11B) and beta III tubulin % rescue versus MAP2% rescue (FIGS. 11C-11D), in neurons and astrocytes (FIGS. 11A and 11C) or neurons, astrocytes, and microglia (FIGS. 11B and 11D) treated with 5 μM sAβ42s and small molecules from a focused screen of known neuroprotective agents at multiple concentrations (50 μM, 25 μM, 12.5 μM and 6.25 μM (double culture), 50 μM, 12.5 μM, 3.1 μM and 0.78 μM (triple culture). Small molecules that prevented toxicity in dendrites (MAP2), synapses (Synapsin 1/2), cell count (CUX2), or axons ([…]) at or above 30% were considered hits (red dotted line).
Neurons from both NSC lines were evaluated by immunofluorescence staining. Briefly, cells were fixed with 4% PFA and 4% sucrose at room temperature for 20 minutes using Bravo automation. Fixed cells were then washed 2 times with PBS using Biotek 406 microplate washer (Beckman Coulter), followed by permeabilization and blocking by incubation with a solution containing 1×PBS, 0.1% Triton X-100, 2% donkey serum, and 1% BSA at room temperature for 30 minutes. Blocking solution was removed and cells were incubated with primary antibodies in blocking solution overnight at 4° C. After washing 6 times with PBS on Biotek 406 cell plate washer (Beckman Coulter), cells were then incubated with fluorophore-conjugated secondary antibodies for 1 hour at room temperature in the dark to avoid photobleaching. Cells were then washed 6 more times in with PBS before imaging. Fluorescent images were captured using IN Cell 6000 confocal microscope (GE Healthcare Life Sciences). The image analysis was performed with IN Cell 6000 analysis software.
Prior to experimentation, media volume in wells containing neurons was equalized with liquid handling automation (Bravo) in order to ensure precise control of concentrations. All Aβ42 oligomers, anti-Aβ, small molecules, inflammatory cytokines were prepared at 10× concentration and added to Neuronal Culture Media at an appropriate volume. For the repeated dosing experiments, the media were refreshed 50% at each dosing first, before adding Aβ42 oligomers, and/or anti-Aβ antibody at the specified final concentration.
(§2) In double (neuron, astrocyte) and triple (neuron, astrocyte, microglia) cultures, each small molecule listed in Table 1 was tested in the AD model paradigm at up to four concentrations. Molecules that characterized ≥30% rescue in any of the four measurements of dendrites area (MAP2), synapses count (synapsin 1/2), or cell count (CUX2), or axon area (Beta III Tubulin; “BT3”)) were classified as hits (FIGS. 11A-11D, Table 2, and Table 3).

[2] = system: human iPSC neurons, astrocytes and microglia treated with 5 μM sAβ42s; assay: Focused small molecule screen, triple culture (neuron, astrocyte, microglia), rescue from sAβ42s toxicity; format: cell-based; settings: for percent rescue from sAβ42s toxicity at 0.78 µM / percent rescue from sAβ42s toxicity at 3.13 µM / percent rescue from sAβ42s toxicity at 12.5 µM / percent rescue from sAβ42s toxicity at 50 µM: Homo sapiens, iPSC
Method: as §1
Frozen cells were thawed and immediately seeded at a density of 8,000 cells/well of a 384-well plate onto 8-week old neuron-astrocyte co-culture in Microglia media (BrainPhys™ neuronal media (Stem Cell Technologies) supplemented with 1× B27 with vitamin A, 1×N2 Plus Media Supplement (R&D Systems), 20 ng/mL BDNF, 20 ng/mL GDNF, 1 mM creatine, 200 nM L-ascorbic acid, 1 μg/mL mouse laminin, 0.5 mM GlutaMAX™ (Thermofisher), 0.5× penicillin-streptomycin, 1× normocin, 5 ng/mL TGF-β, 100 ng/mL human IL-34, 1.5 μg/mL cholesterol, 1 ng/mL gondoic acid, 100 ng/mL oleic acid, 460 μM thioglycerol, 1× insulin-transferrin-selenium, 25 ng/mL rhM-CSF, 5.4 μg/mL human insulin solution).
as §2

`CN(C)S(=O)(=O)c1ccc2c(c1)/C(=C/c1cc3c([nH]1)CCCC3)C(=O)N2` [SU6656] was tested, and the “% B3T rescue” value ([1]; 6.25 μM compound) was 4%, the “% Cux2 rescue” value ([1]; 6.25 μM compound) was 101% and the “% MAP2 rescue” value ([1]; 6.25 μM compound) was 5%. The “% Synapse rescue” value ([1]; 6.25 μM compound) was 13%, the “% B3T rescue” value ([1]; 12.5 μM compound) was 3% and the “% Cux2 rescue” value ([1]; 12.5 μM compound) was 120%. For the same molecule, the “% MAP2 rescue” value ([1]; 12.5 μM compound) was 4%, the “% Synapse rescue” value ([1]; 12.5 μM compound) was 11% and the “% B3T rescue” value ([1]; 25 μM compound) was −37%. The “% Cux2 rescue” value ([1]; 25 μM compound) was 126%, the “% MAP2 rescue” value ([1]; 25 μM compound) was 3% and the “% Synapse rescue” value ([1]; 25 μM compound) was 15%. The “% B3T rescue” value ([1]; 50 μM compound) was −188%, the “% Cux2 rescue” value ([1]; 50 μM compound) was 106% and the “% MAP2 rescue” value ([1]; 50 μM compound) was 3%. For the same molecule, the “% Synapse rescue” value ([1]; 50 μM compound) was 11%, the “% B3T rescue” value ([2]; 0.78 μM compound) was 80% and the “% MAP2 rescue” value ([2]; 0.78 μM compound) was 58%. For the same molecule, the “% Synapse rescue” value ([2]; 0.78 μM compound) was 51%, the “% B3T rescue” value ([2]; 3.13 μM compound) was 92% and the “% MAP2 rescue” value ([2]; 3.13 μM compound) was 72%. The “% Synapse rescue” value ([2]; 3.13 μM compound) was 64%, the “% B3T rescue” value ([2]; 12.50 μM compound) was 71% and the “% MAP2 rescue” value ([2]; 12.50 μM compound) was 53%. For the same molecule, the “% Synapse rescue” value ([2]; 12.50 μM compound) was 49%, the “% B3T rescue” value ([2]; 50.00 μM compound) was 48% and the “% MAP2 rescue” value ([2]; 50.00 μM compound) was 40%. The “% Synapse rescue” value ([2]; 50.00 μM compound) was 36%.
For `C=C[C@@]1(C)CC(=O)[C@]2(O)[C@@]3(C)[C@@H](O)CCC(C)(C)[C@@H]3[C@H](OC(=O)CCN(C)C)[C@H](OC(C)=O)[C@@]2(C)O1.Cl` [NKH 477], the “% B3T rescue” value ([1]; 6.25 μM compound) was 38%, the “% Cux2 rescue” value ([1]; 6.25 μM compound) was 21% and the “% MAP2 rescue” value ([1]; 6.25 μM compound) was 39%. The “% Synapse rescue” value ([1]; 6.25 μM compound) was 7%, the “% B3T rescue” value ([1]; 12.5 μM compound) was 38% and the “% Cux2 rescue” value ([1]; 12.5 μM compound) was 24%. For the same molecule, the “% MAP2 rescue” value ([1]; 12.5 μM compound) was 45%, the “% Synapse rescue” value ([1]; 12.5 μM compound) was 5% and the “% B3T rescue” value ([1]; 25 μM compound) was 35%. The “% Cux2 rescue” value ([1]; 25 μM compound) was 21%, the “% MAP2 rescue” value ([1]; 25 μM compound) was 43% and the “% Synapse rescue” value ([1]; 25 μM compound) was −4%. For the same molecule, the “% B3T rescue” value ([1]; 50 μM compound) was 38%, the “% Cux2 rescue” value ([1]; 50 μM compound) was 45% and the “% MAP2 rescue” value ([1]; 50 μM compound) was 44%. For the same molecule, the “% Synapse rescue” value ([1]; 50 μM compound) was −5%, the “% B3T rescue” value ([2]; 3.13 μM compound) was 42% and the “% MAP2 rescue” value ([2]; 3.13 μM compound) was 17%. For the same molecule, the “% Synapse rescue” value ([2]; 3.13 μM compound) was 12%, the “% B3T rescue” value ([2]; 12.50 μM compound) was 49% and the “% MAP2 rescue” value ([2]; 12.50 μM compound) was 9%. For the same molecule, the “% Synapse rescue” value ([2]; 12.50 μM compound) was 8%, the “% B3T rescue” value ([2]; 50.00 μM compound) was 81% and the “% MAP2 rescue” value ([2]; 50.00 μM compound) was 53%. The “% Synapse rescue” value ([2]; 50.00 μM compound) was 38%.
`N#Cc1ccnc(Nc2cc(C3CCN(C4COC4)CC3)cc(N3CCC(F)(F)C3)n2)c1` [GNE-3511] was tested, and the percent rescue from sAβ42s toxicity at 6.25 µM ([1]; 6.25 μM compound, read-out: % B3T rescue) was 15%, the percent rescue from sAβ42s toxicity at 6.25 µM ([1]; 6.25 μM compound, read-out: % Cux2 rescue) was 18% and the percent rescue from sAβ42s toxicity at 6.25 µM ([1]; 6.25 μM compound, read-out: % MAP2 rescue) was 32%. It also gave a percent rescue from sAβ42s toxicity at 6.25 µM ([1]; 6.25 μM compound, read-out: % Synapse rescue) of 7%, a percent rescue from sAβ42s toxicity at 25 µM ([1]; 25 μM compound, read-out: % B3T rescue) of 17% and a percent rescue from sAβ42s toxicity at 25 µM ([1]; 25 μM compound, read-out: % Cux2 rescue) of 36%. The percent rescue from sAβ42s toxicity at 25 µM ([1]; 25 μM compound, read-out: % MAP2 rescue) was 49%, the percent rescue from sAβ42s toxicity at 25 µM ([1]; 25 μM compound, read-out: % Synapse rescue) was 14% and the percent rescue from sAβ42s toxicity at 50 µM ([1]; 50 μM compound, read-out: % B3T rescue) was 58%. It also gave a percent rescue from sAβ42s toxicity at 50 µM ([1]; 50 μM compound, read-out: % Cux2 rescue) of 81%, a percent rescue from sAβ42s toxicity at 50 µM ([1]; 50 μM compound, read-out: % MAP2 rescue) of 87% and a percent rescue from sAβ42s toxicity at 50 µM ([1]; 50 μM compound, read-out: % Synapse rescue) of 47%. For the same molecule, the percent rescue from sAβ42s toxicity at 0.78 µM ([2]; 0.78 μM compound, read-out: % B3T rescue) was 85%, the percent rescue from sAβ42s toxicity at 0.78 µM ([2]; 0.78 μM compound, read-out: % MAP2 rescue) was 91% and the percent rescue from sAβ42s toxicity at 0.78 µM ([2]; 0.78 μM compound, read-out: % Synapse rescue) was 79%. It also gave a percent rescue from sAβ42s toxicity at 3.13 µM ([2]; 3.13 μM compound, read-out: % B3T rescue) of 81%, a percent rescue from sAβ42s toxicity at 3.13 µM ([2]; 3.13 μM compound, read-out: % MAP2 rescue) of 95% and a percent rescue from sAβ42s toxicity at 3.13 µM ([2]; 3.13 μM compound, read-out: % Synapse rescue) of 77%. For the same molecule, the percent rescue from sAβ42s toxicity at 12.5 µM ([2]; 12.50 μM compound, read-out: % B3T rescue) was 82%, the percent rescue from sAβ42s toxicity at 12.5 µM ([2]; 12.50 μM compound, read-out: % MAP2 rescue) was 102% and the percent rescue from sAβ42s toxicity at 12.5 µM ([2]; 12.50 μM compound, read-out: % Synapse rescue) was 81%. The percent rescue from sAβ42s toxicity at 50 µM ([2]; 50.00 μM compound, read-out: % B3T rescue) was 65%, the percent rescue from sAβ42s toxicity at 50 µM ([2]; 50.00 μM compound, read-out: % MAP2 rescue) was 66% and the percent rescue from sAβ42s toxicity at 50 µM ([2]; 50.00 μM compound, read-out: % Synapse rescue) was 56%.
